Experimental data: patent US9040545B2, “Heterocyclyl pyrazolopyrimidine analogues as selective JAK inhibitors” (Cellzome Limited, priority 2010, dated 2015)

Tests used:
JAK2 = molecular target: T1, JAK2 (Homo sapiens, UniProt O60674); test: Kinobeads assay, JAK2; format: binding; conditions: mixed Molt4/Ramos lysate, read-out: Inhibition values (IC50) JAK2
T1 construct: endogenous in cells; host or cells: mixed Molt4/Ramos lysate (1:2)
Protocol: (§1) The compounds of the present invention as described in the previous examples were tested in a Kinobeads™ assay as described for ZAP-70 (WO-A 2007/137867). Briefly, test compounds (at various concentrations) and the affinity matrix with the immobilized aminopyrido-pyrimidine ligand 24 were added to cell lysate aliquots and allowed to bind to the proteins in the lysate sample. After the incubation time the beads with captured proteins were separated from the lysate. Bound proteins were then eluted and the presence of JAK2 and JAK3 was detected and quantified using specific antibodies in a dot blot procedure and the Odyssey infrared detection system. Dose response curves for individual kinases were generated and IC50 values calculated. Kinobeads™ assays for ZAP-70 (WO-A 2007/137867) and for kinase selectivity profiling (WO-A 2006/134056) have been previously described.
(§2) The affinity matrix was washed two times with 15 mL of 1×DP buffer containing 0.2% NP40 (IGEPAL® CA-630, Sigma, #I3021) and then resuspended in 1×DP buffer containing 0.2% NP40 (3% beads slurry).
(§3) 5×DP buffer 250 mM Tris-HCl pH 7.4, 25% Glycerol, 7.5 mM MgCl2, 750 mM NaCl, 5 mM Na3VO4; filter the 5×DP buffer through a 0.22 μm filter and store in aliquots at −80° C. The 5×DP buffer is diluted with H2O to 1×DP buffer containing 1 mM DTT and 25 mM NaF.
(§4) Stock solutions of test compounds were prepared in DMSO. In a 96 well plate 30 μL solution of diluted test compounds at 5 mM in DMSO were prepared. Starting with this solution a 1:3 dilution series (9 steps) was prepared. For control experiments (no test compound) a buffer containing 2% DMSO was used.
Molt4 cells (ATCC catalogue number CRL-1582) and Ramos cells (ATCC catalogue number CRL-1596) were grown in 1 L Spinner flasks (Integra Biosciences, #182101) in suspension in RPMI 1640 medium (Invitrogen, #21875-034) supplemented with 10% Fetal Bovine Serum (Invitrogen) at a density between 0.15×106 and 1.2×10^6 cells/mL. Cells were harvested by centrifugation, washed once with 1×PBS buffer (Invitrogen, #14190-094) and cell pellets were frozen in liquid nitrogen and subsequently stored at −80° C. Cells were homogenized in a Potter S homogenizer in lysis buffer: 50 mM Tris-HCl, 0.8% NP40, 5% glycerol, 150 mM NaCl, 1.5 mM MgCl2, 25 mM NaF, 1 mM sodium vanadate, 1 mM DTT, pH 7.5. One complete EDTA-free tablet (protease inhibitor cocktail, Roche Diagnostics, 1873580) per 25 mL buffer was added. The material was dounced 10 times using a mechanized POTTER S, transferred to 50 mL falcon tubes, incubated for 30 minutes on ice and spun down for 10 minutes at 20,000 g at 4° C. (10,000 rpm in Sorvall SLA600, precooled). The supernatant was transferred to an ultracentrifuge (UZ)-polycarbonate tube (Beckmann, 355654) and spun for 1 hour at 100,000 g at 4° C. (33.500 rpm in Ti50.2, precooled). The supernatant was transferred again to a fresh 50 mL falcon tube, the protein concentration was determined by a Bradford assay (BioRad) and samples containing 50 mg of protein per aliquot were prepared. The samples were immediately used for experiments or frozen in liquid nitrogen and stored frozen at −80° C.
(§5) Cell lysate (approximately 50 mg protein per plate) was thawed in a water bath at room temperature and then stored on ice. To the thawed cell lysate 1×DP 0.8% NP40 buffer containing protease inhibitors (1 tablet for 25 mL buffer; EDTA-free protease inhibitor cocktail; Roche Diagnostics 1873580) was added in order to reach a final protein concentration of 10 mg/mL total protein. The diluted cell lysate was stored on ice. Mixed Molt4/Ramos lysate was prepared by combining one volume of Molt4 lysate and two volumes of Ramos lysate (ratio 1:2).
To a 96 well filter plate (Multiscreen HTS, BV Filter Plates, Millipore #MSBVN1250) were added per well: 100 μL affinity matrix (3% beads slurry), 3 μL of compound solution, and 50 μL of diluted lysate. […]

Aurora B = molecular target: T2, Aurora B (Homo sapiens, UniProt Q96GD4); test: Kinobeads assay, Aurora B; format: binding; conditions: for IC50: lysate of pervanadate-treated Jurkat cells, read-out: Inhibition values (IC50) Aur B
T2 construct: cell lysates from Jurkat cells (ATCC TIB-152) used; endogenous in cells; host or cells: Jurkat cells (ATCC TIB-152), treated with pervanadate
Protocol: as §1, §2, §3, §4, §5
To a 96 well filter plate (Multiscreen HTS, BV Filter Plates, Millipore #MSBVN1250) were added per well: 100 μL affinity matrix (3% beads slurry), 3 μL of compound solution, and 50 μL of diluted lysate. Plates were sealed and incubated for 3 hours in a cold room on a plate shaker (Heidolph tiramax 1000) at 750 rpm. Afterwards the plate was washed 3 times with 230 μL washing buffer (1×DP 0.4% NP40). The filter plate was placed on top of a collection 1 plate (Greiner bio-one, PP-microplate 96 well V-shape, 65120) and the beads were then eluted with 20 μL of sample buffer (100 mM Tris, pH 7.4, 4% SDS, 0.00025% bromophenol blue, 20% glycerol, 50 mM DTT). The eluate was frozen quickly at −80° C. and stored at −20° C.
The kinases in the eluates were detected and quantified by spotting on nitrocellulose membranes and using a first antibody directed against the kinase of interest and a fluorescently labelled secondary antibody (anti-rabbit IRDye™ antibody 800 (Licor, #926-32211). The Odyssey Infrared Imaging system from LI-COR Biosciences (Lincoln, Nebr., USA) was operated according to instructions provided by the manufacturer (Schutz-Geschwendener et al, 2004. Quantitative, two-color Western blot detection with infrared fluorescence. Published May 2004 by LI-COR Biosciences, www.licor.com).
After spotting of the eluates the nitrocellulose membrane (BioTrace NT; PALL, #BTNT30R) was first blocked by incubation with Odyssey blocking buffer (LICOR, 927-40000) for 1 hour at room temperature. Blocked membranes were then incubated for 16 hours at the temperature shown in Table 5 with the first antibody diluted in Odyssey blocking buffer (LICOR #927-40000). Afterwards the membrane was washed twice for 10 minutes with PBS buffer containing 0.2% Tween 20 at room temperature. […]

T1 sequence (O60674 whole entry): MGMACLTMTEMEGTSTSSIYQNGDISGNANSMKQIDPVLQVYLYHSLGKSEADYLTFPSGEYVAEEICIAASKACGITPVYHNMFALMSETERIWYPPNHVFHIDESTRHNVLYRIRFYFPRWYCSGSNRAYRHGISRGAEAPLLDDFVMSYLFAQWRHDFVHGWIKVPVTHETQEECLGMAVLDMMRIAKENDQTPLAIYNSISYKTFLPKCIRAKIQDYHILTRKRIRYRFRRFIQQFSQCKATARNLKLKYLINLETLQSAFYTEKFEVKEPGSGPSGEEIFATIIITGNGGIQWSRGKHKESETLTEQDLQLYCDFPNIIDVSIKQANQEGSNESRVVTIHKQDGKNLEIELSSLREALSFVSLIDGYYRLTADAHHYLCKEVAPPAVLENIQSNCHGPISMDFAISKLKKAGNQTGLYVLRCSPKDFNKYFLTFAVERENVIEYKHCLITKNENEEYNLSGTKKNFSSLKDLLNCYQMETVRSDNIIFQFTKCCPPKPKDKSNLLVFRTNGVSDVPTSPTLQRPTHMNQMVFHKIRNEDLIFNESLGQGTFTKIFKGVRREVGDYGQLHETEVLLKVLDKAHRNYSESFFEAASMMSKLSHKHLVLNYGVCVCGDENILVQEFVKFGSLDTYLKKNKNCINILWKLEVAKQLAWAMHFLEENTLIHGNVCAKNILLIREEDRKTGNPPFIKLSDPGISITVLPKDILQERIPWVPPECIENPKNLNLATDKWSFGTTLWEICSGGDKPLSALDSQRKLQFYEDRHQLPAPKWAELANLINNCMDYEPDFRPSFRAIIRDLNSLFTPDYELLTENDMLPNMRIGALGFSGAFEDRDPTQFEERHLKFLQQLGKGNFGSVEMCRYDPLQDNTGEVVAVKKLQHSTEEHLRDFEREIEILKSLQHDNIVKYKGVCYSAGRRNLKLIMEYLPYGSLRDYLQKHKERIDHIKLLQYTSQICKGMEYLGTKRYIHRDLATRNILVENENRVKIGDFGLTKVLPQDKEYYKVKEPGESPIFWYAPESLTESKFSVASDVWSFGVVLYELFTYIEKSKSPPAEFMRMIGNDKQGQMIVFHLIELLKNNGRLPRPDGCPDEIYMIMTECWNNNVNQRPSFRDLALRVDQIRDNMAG
T2 sequence (Q96GD4 whole entry): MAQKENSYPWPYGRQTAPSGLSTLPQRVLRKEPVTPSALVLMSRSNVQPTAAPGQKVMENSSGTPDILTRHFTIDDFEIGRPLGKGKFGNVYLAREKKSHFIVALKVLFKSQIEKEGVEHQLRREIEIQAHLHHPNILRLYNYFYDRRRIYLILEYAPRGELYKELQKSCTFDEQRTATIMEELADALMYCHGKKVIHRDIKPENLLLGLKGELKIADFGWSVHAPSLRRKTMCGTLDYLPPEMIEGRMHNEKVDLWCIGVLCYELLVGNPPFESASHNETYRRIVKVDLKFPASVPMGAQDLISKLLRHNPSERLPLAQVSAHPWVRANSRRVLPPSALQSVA

SMILES | IC50 (JAK2) | JAK3/AurB Fold Selectivity (Aurora B) | IC50 (Aurora B)
OCCCn1cc(Nc2ncc3cnn(Cc4cccc(N5CCOCC5)c4)c3n2)cn1 [Example 18, 3-(4-((1-(3-Morpholinobenzyl)-1H-pyrazolo[3,4-d]pyrimidin-6-yl)amino)-1H-pyrazol-1-yl)propan-1-ol] | ≥ 10 µM | >50 Fold | 0.1 to 1 µM
Cn1cc(Nc2ncc3cnn(Cc4cccc(N5CCC(F)(F)CC5)c4)c3n2)cn1 [Example 19, 1-(3-(4,4-Difluoropiperidin-1-yl)benzyl)-N-(1-methyl-1H-pyrazol-4-yl)-1H-pyrazolo[3,4-d]pyrimidin-6-amine] | ≥ 10 µM | 10-50 Fold | ≥ 10 µM
O=C(CCn1cc(Nc2ncc3cnn(Cc4cccc(N5CCOCC5)c4)c3n2)cn1)N1CCCCC1 [Example 20, 3-(4-((1-(3-Morpholinobenzyl)-1H-pyrazolo[3,4-d]pyrimidin-6-yl)amino)-1H-pyrazol-1-yl)-1-(piperidin-1-yl)propan-1-one] | ≥ 10 µM | >50 Fold | 1 to 10 µM
Cn1cc(Nc2ncc3cnn(Cc4cccc(N5CCOCC5)c4F)c3n2)cn1 [Example 21, 1-(2-Fluoro-3-morpholinobenzyl)-N-(1-methyl-1H-pyrazol-4-yl)-1H-pyrazolo[3,4-d]pyrimidin-6-amine] | 1 to 10 µM | >50 Fold | 1 to 10 µM
Cn1cc(Nc2ncc3cnn(Cc4cccc(N5CCNCC5)c4)c3n2)cn1 [Example 22, N-(1-Methyl-1H-pyrazol-4-yl)-1-(3-(piperazin-1-yl)benzyl)-1H-pyrazolo[3,4-d]pyrimidin-6-amine] | 1 to 10 µM | >50 Fold | 0.1 to 1 µM
FC(F)Cn1cc(Nc2ncc3cnn(Cc4cccc(N5CCOCC5)c4)c3n2)cn1 [Example 23, N-(1-(2,2-Difluoroethyl)-1H-pyrazol-4-yl)-1-(3-morpholinobenzyl)-1H-pyrazolo[3,4-d]pyrimidin-6-amine] | ≥ 10 µM | >50 Fold | 1 to 10 µM
CNC(=O)CCn1cc(Nc2ncc3cnn(Cc4cccc(N5CCOCC5)c4)c3n2)cn1 [Example 24, N-Methyl-3-(4-((1-(3-morpholinobenzyl)-1H-pyrazolo[3,4-d]pyrimidin-6-yl)amino)-1H-pyrazol-1-yl)propanamide] | ≥ 10 µM | >50 Fold | 1 to 10 µM
Cn1cc(Nc2ncc3cnn(Cc4cccc(N5CCS(=O)(=O)CC5)c4)c3n2)cn1 [Example 25, 4-(3-((6-((1-Methyl-1H-pyrazol-4-yl)amino)-1H-pyrazolo[3,4-d]pyrimidin-1-yl)methyl)phenyl)thiomorpholine 1,1-dioxide] | ≥ 10 µM | 10-50 Fold | 0.1 to 1 µM
Cn1cc(Nc2ncc3cnn(Cc4cccc(N5CC6CCC(C5)O6)c4)c3n2)cn1 [Example 26] | ≥ 10 µM | 10-50 Fold | 1 to 10 µM
Cn1cc(Nc2ncc3cnn(Cc4cccc(N5CCOCC5=O)c4)c3n2)cn1 [Example 27, 4-(3-((6-((1-Methyl-1H-pyrazol-4-yl)amino)-1H-pyrazolo[3,4-d]pyrimidin-1-yl)methyl)phenyl)morpholin-3-one] | 1 to 10 µM | 10-50 Fold | 0.1 to 1 µM
CN(C)CCCn1cc(Nc2ncc3cnn(Cc4cccc(N5CCOCC5=O)c4)c3n2)cn1 [Example 28, 4-(3-((6-((1-(3-(Dimethylamino)propyl)-1H-pyrazol-4-yl)amino)-1H-pyrazolo[3,4-d]pyrimidin-1-yl)methyl)phenyl)morpholin-3-one] | ≥ 10 µM | >50 Fold | 0.1 to 1 µM
O=C1COCCN1c1cccc(Cn2ncc3cnc(Nc4cnn(CCO)c4)nc32)c1 [Example 29, 4-(3-((6-((1-(2-Hydroxyethyl)-1H-pyrazol-4-yl)amino)-1H-pyrazolo[3,4-d]pyrimidin-1-yl)methyl)phenyl)morpholin-3-one] | ≥ 10 µM | 10-50 Fold | 0.1 to 1 µM
O=C1CCCN1CCCn1cc(Nc2ncc3cnn(Cc4cccc(N5CCOCC5)c4)c3n2)cn1 [Example 30, 1-(3-(4-((1-(3-Morpholinobenzyl)-1H-pyrazolo[3,4-d]pyrimidin-6-yl)amino)-1H-pyrazol-1-yl)propyl)pyrrolidin-2-one] | ≥ 10 µM | >50 Fold | 1 to 10 µM
CN(C)CC1(Cn2cc(Nc3ncc4cnn(Cc5cccc(N6CCOCC6)c5)c4n3)cn2)COC1 [Example 31, N-(1-((3-((Dimethylamino)methyl)oxetan-3-yl)methyl)-1H-pyrazol-4-yl)-1-(3-morpholinobenzyl)-1H-pyrazolo[3,4-d]pyrimidin-6-amine] | ≥ 10 µM | >50 Fold | 1 to 10 µM
CC(CN(C)C)Cn1cc(Nc2ncc3cnn(Cc4cccc(N5CCOCC5)c4)c3n2)cn1 (stereo not drawn) [Example 32, N-(1-(3-(Dimethylamino)-2-methylpropyl)-1H-pyrazol-4-yl)-1-(3-morpholinobenzyl)-1H-pyrazolo[3,4-d]pyrimidin-6-amine] | ≥ 10 µM | >50 Fold | 1 to 10 µM
CN(C)CC(O)Cn1cc(Nc2ncc3cnn(Cc4cccc(N5CCOCC5)c4)c3n2)cn1 (stereo not drawn) [Example 33, 1-(Dimethylamino)-3-(4-((1-(3-morpholinobenzyl)-1H-pyrazolo[3,4-d]pyrimidin-6-yl)amino)-1H-pyrazol-1-yl)propan-2-ol] | ≥ 10 µM | 10-50 Fold | 1 to 10 µM
NCCCn1cc(Nc2ncc3cnn(Cc4cccc(N5CCOCC5)c4)c3n2)cn1 [Example 34, N-(1-(3-Aminopropyl)-1H-pyrazol-4-yl)-1-(3-morpholinobenzyl)-1H-pyrazolo[3,4-d]pyrimidin-6-amine] | ≥ 10 µM | >50 Fold | 1 to 10 µM
